Source: patent US8247211B2, “Glycopeptide antibiotics” (American Cyanamid Company, priority 2001, dated 2012)
Values after ≈ are worked out from the molar mass of the structure shown.

Key:
Assay in all cases: In vitro antibacterial evaluation: minimum inhibitory concentration (MIC), broth dilution method
Type in all cases: cell-based
Enterococcus sp. = system: Enterococcus sp.
Outline: (§1)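 Values are minimum inhibitory concentrations, meaning the smallest antibiotic concentration that stops growth of the organism. They come from broth dilution in Muller-Hinton II […] per NCCLS guidance (M7-A2), using 5×10^5 CFU/mL and concentrations from 64 to 0.06 μg/mL.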

Escherichia coli = system: Escherichia coli
Outline: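 Broth dilution per NCCLS M7-A2 in Muller-Hinton II […], inoculum 5×10^5 CFU/mL, antibiotic tested over 64-0.06 μg/mL. MIC is taken as the lowest concentration that inhibits growth. Panel includes recent clinical isolates resistant to methicillin, penicillin and/or vancomycin.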

Staphylococcus sp. = settings: for MIC Staphylococcus aureus (ATCC 29213) / MIC Staphylococcus aureus (GC 1131) / MIC Staphylococcus aureus (GC 3051) / MIC Staphylococcus aureus (GC 3053) / MIC Staphylococcus aureus (GC 4541) / MIC Staphylococcus aureus (GC 4542) / MIC Staphylococcus aureus (GC 4544) / MIC Staphylococcus aureus (GC 4545): broth dilution, 18 hours at 35° C.
Outline: as §1

Streptococcus sp. = system: Streptococcus sp.
Outline: as §1

[1] = broth dilution, inoculum 5×10^5 CFU/mL, 18 hours at 35° C.

MIC Enterococcus avium (GC 4558) (Enterococcus sp.; [1]): 2 µg/mL (≈ 1.3 µM)
MIC Enterococcus faecalis (ATCC 29212) (Enterococcus sp.; [1]): 8 µg/mL (≈ 5.21 µM)
MIC Enterococcus faecalis (GC 2242) (Enterococcus sp.; [1]): 8 µg/mL (≈ 5.21 µM)
MIC Enterococcus faecalis (GC 2691) (Enterococcus sp.; [1]): 2 µg/mL (≈ 1.3 µM)
MIC Enterococcus faecalis (GC 3059) (Enterococcus sp.; [1]): 4 µg/mL (≈ 2.6 µM)
MIC Enterococcus faecalis (GC 4552) (Enterococcus sp.; [1]): 8 µg/mL (≈ 5.21 µM)
MIC Enterococcus faecalis (GC 4553) (Enterococcus sp.; [1]): 4 µg/mL (≈ 2.6 µM)
MIC Enterococcus faecalis (GC 4554) (Enterococcus sp.; [1]): 4 µg/mL (≈ 2.6 µM)
MIC Enterococcus faecalis (GC 6189) (Enterococcus sp.; [1]): 2 µg/mL (≈ 1.3 µM)
MIC Enterococcus faecium (GC 2243) (Enterococcus sp.; [1]): 2 µg/mL (≈ 1.3 µM)
MIC Enterococcus faecium (GC 4556) (Enterococcus sp.; [1]): 8 µg/mL (≈ 5.21 µM)
MIC Enterococcus faecium (GC 4557) (Enterococcus sp.; [1]): 4 µg/mL (≈ 2.6 µM)
MIC Enterococcus faecalis (ATCC 29212) (Enterococcus sp.; strain ATCC 29212): 8 µg/mL (≈ 5.21 µM)
MIC Enterococcus faecalis (GC 2242) (Enterococcus sp.; strain GC 2242): 8 µg/mL (≈ 5.21 µM)
MIC Enterococcus faecium (GC 2243) (Enterococcus sp.; strain GC 2243): 2 µg/mL (≈ 1.3 µM)
MIC Enterococcus faecalis (GC 2691) (Enterococcus sp.; strain GC 2691): 2 µg/mL (≈ 1.3 µM)
MIC Enterococcus faecalis (GC 3059) (Enterococcus sp.; strain GC 3059): 4 µg/mL (≈ 2.6 µM)
MIC Enterococcus faecalis (GC 4552) (Enterococcus sp.; strain GC 4552): 8 µg/mL (≈ 5.21 µM)
MIC Enterococcus faecalis (GC 4553) (Enterococcus sp.; strain GC 4553): 4 µg/mL (≈ 2.6 µM)
MIC Enterococcus faecalis (GC 4554) (Enterococcus sp.; strain GC 4554): 4 µg/mL (≈ 2.6 µM)
MIC Enterococcus faecium (GC 4556) (Enterococcus sp.; strain GC 4556): 8 µg/mL (≈ 5.21 µM)
MIC Enterococcus faecium (GC 4557) (Enterococcus sp.; strain GC 4557): 4 µg/mL (≈ 2.6 µM)
MIC Enterococcus avium (GC 4558) (Enterococcus sp.; strain GC 4558): 2 µg/mL (≈ 1.3 µM)
MIC Enterococcus faecalis (GC 6189) (Enterococcus sp.; strain GC 6189): 2 µg/mL (≈ 1.3 µM)
MIC Escherichia coli (ATCC 25922) (Escherichia coli; strain ATCC 25922): >64 µg/mL
MIC Escherichia coli (GC 4559) (Escherichia coli; strain GC 4559): >64 µg/mL
MIC Escherichi coli (GC 4560) (Escherichia coli; strain GC 4560): 4 µg/mL (≈ 2.6 µM)
MIC Staphylococcus aureus (ATCC 29213) (Staphylococcus sp.; 5×10^5 CFU/mL): 4 µg/mL (≈ 2.6 µM)
MIC Staphylococcus aureus (GC 1131) (Staphylococcus sp.; 5×10^5 CFU/mL): 8 µg/mL (≈ 5.21 µM)
MIC Staphylococcus aureus (GC 3051) (Staphylococcus sp.; 5×10^5 CFU/mL): 2 µg/mL (≈ 1.3 µM)
MIC Staphylococcus aureus (GC 3053) (Staphylococcus sp.; 5×10^5 CFU/mL): 2 µg/mL (≈ 1.3 µM)
MIC Staphylococcus aureus (GC 4541) (Staphylococcus sp.; 5×10^5 CFU/mL): 8 µg/mL (≈ 5.21 µM)
MIC Staphylococcus aureus (GC 4542) (Staphylococcus sp.; 5×10^5 CFU/mL): 4 µg/mL (≈ 2.6 µM)
MIC Staphylococcus aureus (GC 4544) (Staphylococcus sp.; 5×10^5 CFU/mL): 4 µg/mL (≈ 2.6 µM)
MIC Staphylococcus aureus (GC 4545) (Staphylococcus sp.; 5×10^5 CFU/mL): 4 µg/mL (≈ 2.6 µM)
MIC Staphylococcus aureus (ATCC 29213) (Staphylococcus sp.; strain ATCC 29213): 4 µg/mL (≈ 2.6 µM)
MIC Staphylococcus aureus (GC 1131) (Staphylococcus sp.; strain GC 1131): 8 µg/mL (≈ 5.21 µM)
MIC Staphylococcus aureus (GC 3051) (Staphylococcus sp.; strain GC 3051): 2 µg/mL (≈ 1.3 µM)
MIC Staphylococcus aureus (GC 3053) (Staphylococcus sp.; strain GC 3053): 2 µg/mL (≈ 1.3 µM)
MIC Staphylococcus aureus (GC 4541) (Staphylococcus sp.; strain GC 4541): 8 µg/mL (≈ 5.21 µM)
MIC Staphylococcus aureus (GC 4542) (Staphylococcus sp.; strain GC 4542): 4 µg/mL (≈ 2.6 µM)
MIC Staphylococcus aureus-SMITH (GC 4543) (Staphylococcus sp.; strain GC 4543): 4 µg/mL (≈ 2.6 µM)
MIC Staphylococcus aureus (GC 4544) (Staphylococcus sp.; strain GC 4544): 4 µg/mL (≈ 2.6 µM)
MIC Staphylococcus aureus (GC 4545) (Staphylococcus sp.; strain GC 4545): 4 µg/mL (≈ 2.6 µM)
MIC Coagulase Negative Staphylococcus (GC 4547) (Staphylococcus sp.; strain GC 4547): 4 µg/mL (≈ 2.6 µM)
MIC Coagulase Negative Staphylococcus (GC 4548) (Staphylococcus sp.; strain GC 4548): 2 µg/mL (≈ 1.3 µM)
MIC Coagulase Negative Staphylococcus (GC 4549) (Staphylococcus sp.; strain GC 4549): 4 µg/mL (≈ 2.6 µM)
MIC Coagulase Negative Staphylococcus (GC 4551) (Staphylococcus sp.; strain GC 4551): 4 µg/mL (≈ 2.6 µM)
MIC Coagulase Negative Staphylococcus (GC 6257) (Staphylococcus sp.; strain GC 6257): 2 µg/mL (≈ 1.3 µM)
MIC Streptococcus agalactiae (GC 4564) (Streptococcus sp.; [1]): <0.06 µg/mL
MIC Streptococcus pneumoniae (ATCC 6301) (Streptococcus sp.; [1]): <0.06 µg/mL
MIC Streptococcus pneumoniae (GC 1894) (Streptococcus sp.; [1]): <0.06 µg/mL
MIC Streptococcus pneumoniae (GC 4565) (Streptococcus sp.; [1]): <0.06 µg/mL
MIC Streptococcus pyogenes (GC 4563) (Streptococcus sp.; [1]): <0.06 µg/mL
MIC Streptococcus pneumoniae (ATCC 6301) (Streptococcus sp.; strain ATCC 6301): <0.06 µg/mL
MIC Streptococcus pneumoniae (GC 1894) (Streptococcus sp.; strain GC 1894): <0.06 µg/mL
MIC Streptococcus pyogenes (GC 4563) (Streptococcus sp.; strain GC 4563): <0.06 µg/mL
MIC Streptococcus agalactiae (GC 4564) (Streptococcus sp.; strain GC 4564): <0.06 µg/mL
MIC Streptococcus pneumoniae (GC 4565) (Streptococcus sp.; strain GC 4565): <0.06 µg/mL
SMILES: CC(C)=CCCC(C)=CCOc1ccc(C2OCC3OC(OC4C(CO)OC(Oc5ccc(CC6NC(=O)C(C(C)c7ccccc7)NC(=O)CNC(=O)C(CO)NC(=O)C(C(O)C7CNC(=N)N7C7OC(CO)C(O)C(O)C7O)NC(=O)C(C(O)C7CNC(=N)N7)NC6=O)cc5)C(O)C4O)C(O)C(O)C3O2)cc1 (stereo not drawn) [Example 183, Cyclo[glycyl-β-methylphenylalanyl-O-[4-O-[4,6-O-[4-[(3,7-dimethylocta-2,6-dien-1-yl)oxy]-benzylidene]hexopyranosyl]hexopyranosyl]tyrosyl-3-(2-iminoimidazolidin-4-yl)seryl-3-(3-hexopyranosyl-2-iminoimidazolidin-4-yl)serylseryl]]
MIC Staphylococcus haemolyticus (GC 4546) (Staphylococcus sp.; strain GC 4546): 8 µg/mL (≈ 5.21 µM)
